Patent US20250171437A1 (Agios Pharmaceuticals,Inc., priority 2022, published 2025)

Molecular target: T1, human PAH with the R408W mutation (A375 R408W cells) (Homo sapiens, UniProt P00439, R408W)
T1 construct: expressed in transfected cells
T1 sequence (P00439 1-452 R408W): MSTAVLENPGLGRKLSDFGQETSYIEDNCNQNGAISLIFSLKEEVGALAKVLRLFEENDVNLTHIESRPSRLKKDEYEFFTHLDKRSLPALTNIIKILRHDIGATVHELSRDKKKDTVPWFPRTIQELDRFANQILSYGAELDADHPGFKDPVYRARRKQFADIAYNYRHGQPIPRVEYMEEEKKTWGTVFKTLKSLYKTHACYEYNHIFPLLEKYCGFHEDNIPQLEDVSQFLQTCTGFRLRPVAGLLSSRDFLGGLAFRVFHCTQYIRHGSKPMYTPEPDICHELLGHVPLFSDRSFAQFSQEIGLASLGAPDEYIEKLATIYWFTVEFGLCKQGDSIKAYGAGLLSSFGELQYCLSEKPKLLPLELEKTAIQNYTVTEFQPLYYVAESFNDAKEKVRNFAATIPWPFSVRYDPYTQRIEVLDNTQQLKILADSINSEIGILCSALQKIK
Assay: Cell Based Phenylalanine Flux Assay
Details: A375 R408W cells; 24 hrs with compound, then 20 μM sepiapterin and 800 μM 13C9,15N-Phenylalanine for 4 hours; 13C-Tyrosine by LC-MS; average where tested multiple times
Procedure, shortened: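 AC50 is derived from LC-MS of 13C-tyrosine in the media after a 4 h pulse of 800 μM 13C9,15N-phenylalanine plus 20 μM sepiapterin. The A375 R408W PAH cells had received duplicate 10-point, 2-fold compound dilutions (0.5% DMSO) for 24 h beforehand.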

| Compound | AC50 [µM] |
| --- | --- |
| CC(C)(O)c1nc(C(F)F)c(C(=O)N2CCc3[nH]cnc3[C@H]2c2nc3c(Br)cccc3o2)o1 [Example 431, (S)-(4-(4-bromobenzo[d]oxazol-2-yl)-6,7-dihydro-1H-imidazo[4,5-c]pyridin-5(4H)-yl)(4-(difluoromethyl)-2-(2-hydroxypropan-2-yl)oxazol-5-yl)methanone] | ≤ 0.5 |
| O=C(c1nnc(-c2ccc(F)cc2)o1)N1CCc2[nH]cnc2[C@@H]1c1nc2cc(F)ccc2o1 [Example 28, (R)-(4-(5-fluorobenzo[d]oxazol-2-yl)-6,7-dihydro-1H-imidazo[4,5-c]pyridin-5(4H)-yl)(5-(4-fluorophenyl)-1,3,4-oxadiazol-2-yl)methanone] | 1 to 5 |
| COc1ccc2c(C(=O)N3CCc4[nH]cnc4[C@H]3c3nc4cc(F)ccc4o3)cnn2c1 [Example 73, (S)-(4-(5-fluorobenzo[d]oxazol-2-yl)-6,7-dihydro-1H-imidazo[4,5-c]pyridin-5(4H)-yl)(6-methoxypyrazolo[1,5-a]pyridin-3-yl)methanone] | 0.5 to 1 |
| Cc1cccc2oc([C@@H]3c4nc[nH]c4CCN3C(=O)c3oc(C(C)(C)O)nc3C(F)F)nc12 [Example 361, (S)-(4-(difluoromethyl)-2-(2-hydroxypropan-2-yl)oxazol-5-yl)(4-(4-methylbenzo[d]oxazol-2-yl)-6,7-dihydro-1H-imidazo[4,5-c]pyridin-5(4H)-yl)methanone] | ≤ 0.5 |
| O=C(c1nnc(-c2ccc(C(F)(F)F)cc2)o1)N1CCc2[nH]cnc2[C@@H]1c1nc2cc(F)ccc2o1 [Example 89, (R)-(4-(5-fluorobenzo[d]oxazol-2-yl)-6,7-dihydro-1H-imidazo[4,5-c]pyridin-5(4H)-yl)(5-(4-(trifluoromethyl)phenyl)-1,3,4-oxadiazol-2-yl)methanone] | 1 to 5 |
| Cc1cnn(C)c1-c1nnc(C(=O)N2CCc3[nH]cnc3[C@H]2c2nc3cc(F)ccc3o2)o1 [Example 119, (S)-(5-(1,4-dimethyl-1H-pyrazol-5-yl)-1,3,4-oxadiazol-2-yl)(4-(5-fluorobenzo[d]oxazol-2-yl)-6,7-dihydro-1H-imidazo[4,5-c]pyridin-5(4H)-yl)methanone] | 0.5 to 1 |
| Cc1cccc2oc([C@@H]3c4nc[nH]c4CCN3C(=O)c3ccnn3C(F)F)nc12 [Example 449, (S)-(1-(difluoromethyl)-1H-pyrazol-5-yl)(4-(4-methylbenzo[d]oxazol-2-yl)-6,7-dihydro-1H-imidazo[4,5-c]pyridin-5(4H)-yl)methanone] | ≤ 0.5 |
| CC(C)(O)c1nc(C(F)F)c(C(=O)N2CCc3[nH]cnc3[C@@H]2c2nc3c(F)cc(F)cc3o2)o1 [Example 300, (R)-(4-(4,6-difluorobenzo[d]oxazol-2-yl)-6,7-dihydro-1H-imidazo[4,5-c]pyridin-5(4H)-yl)(4-(difluoromethyl)-2-(2-hydroxypropan-2-yl)oxazol-5-yl)methanone] | 1 to 5 |
| Cc1ccc2nc([C@@H]3c4nc[nH]c4CCN3C(=O)c3nnc(-c4ncccc4F)o3)oc2c1 [Example 679, (S)-(5-(3-fluoropyridin-2-yl)-1,3,4-oxadiazol-2-yl)(4-(6-methylbenzo[d]oxazol-2-yl)-6,7-dihydro-1H-imidazo[4,5-c]pyridin-5(4H)-yl)methanone] | 0.5 to 1 |
| Cc1ccc2oc([C@@H]3c4nc[nH]c4CCN3C(=O)c3oc(C(C)(C)O)nc3Br)nc2c1 [Example 407, (S)-(4-bromo-2-(2-hydroxypropan-2-yl)oxazol-5-yl)(4-(5-methylbenzo[d]oxazol-2-yl)-6,7-dihydro-1H-imidazo[4,5-c]pyridin-5(4H)-yl)methanone] | ≤ 0.5 |
| CN1CCN(c2ccc3c(C(=O)N4CCc5[nH]cnc5[C@H]4c4nc5cc(F)ccc5o4)cnn3c2)CC1 [Example 65, (S)-(4-(5-fluorobenzo[d]oxazol-2-yl)-6,7-dihydro-1H-imidazo[4,5-c]pyridin-5(4H)-yl)(6-(4-methylpiperazin-1-yl)pyrazolo[1,5-a]pyridin-3-yl)methanone] | 1 to 5 |
| O=C(c1cnn(CC(F)(F)F)c1C(F)F)N1CCc2[nH]cnc2[C@@H]1c1nc2cc(F)ccc2o1 [Example 184, (R)-(5-(difluoromethyl)-1-(2,2,2-trifluoroethyl)-1H-pyrazol-4-yl)(4-(5-fluorobenzo[d]oxazol-2-yl)-6,7-dihydro-1H-imidazo[4,5-c]pyridin-5(4H)-yl)methanone] | 1 to 5 |
| COCc1ccc2c(C(=O)N3CCc4[nH]cnc4[C@@H]3c3nc4c(F)cccc4o3)cnn2c1 [Example 276, (R)-(4-(4-fluorobenzo[d]oxazol-2-yl)-6,7-dihydro-1H-imidazo[4,5-c]pyridin-5(4H)-yl)(6-(methoxymethyl)pyrazolo[1,5-a]pyridin-3-yl)methanone] | ≥ 5 |
| O=C(c1cnn2cc(F)c(Cl)cc12)N1CCc2[nH]cnc2[C@@H]1c1nc2cc(F)ccc2o1 [Example 220, (R)-(5-chloro-6-fluoropyrazolo[1,5-a]pyridin-3-yl)(4-(5-fluorobenzo[d]oxazol-2-yl)-6,7-dihydro-1H-imidazo[4,5-c]pyridin-5(4H)-yl)methanone] | ≥ 5 |
| Cc1cccc2oc([C@@H]3c4nc[nH]c4CCN3C(=O)c3cnn4cc(N5CCC(O)CC5)ccc34)nc12 [Example 701, (S)-(6-(4-hydroxypiperidin-1-yl)pyrazolo[1,5-a]pyridin-3-yl)(4-(4-methylbenzo[d]oxazol-2-yl)-6,7-dihydro-1H-imidazo[4,5-c]pyridin-5(4H)-yl)methanone] | ≤ 0.5 |
| Cc1ccc2nc([C@H]3c4nc[nH]c4CCN3C(=O)c3oc(C(C)(C)O)nc3C(F)F)oc2c1 [Example 316, (R)-(4-(difluoromethyl)-2-(2-hydroxypropan-2-yl)oxazol-5-yl)(4-(6-methylbenzo[d]oxazol-2-yl)-6,7-dihydro-1H-imidazo[4,5-c]pyridin-5(4H)-yl)methanone] | 1 to 5 |
| CN(C)c1ccc2c(C(=O)N3CCc4[nH]cnc4[C@H]3c3nc4cc(F)ccc4o3)cnn2c1 [Example 91, (S)-(6-(dimethylamino)pyrazolo[1,5-a]pyridin-3-yl)(4-(5-fluorobenzo[d]oxazol-2-yl)-6,7-dihydro-1H-imidazo[4,5-c]pyridin-5(4H)-yl)methanone] | 0.5 to 1 |
| Cn1nc(C(F)F)cc1C(=O)N1CCc2[nH]cnc2[C@@H]1c1nc2cccc(F)c2o1 [Example 734, (R)-(3-(difluoromethyl)-1-methyl-1H-pyrazol-5-yl)(4-(7-fluorobenzo[d]oxazol-2-yl)-6,7-dihydro-1H-imidazo[4,5-c]pyridin-5(4H)-yl)methanone] | 1 to 5 |
| Cn1cncc1-c1nc(C(F)F)c(C(=O)N2CCc3[nH]cnc3[C@@H]2c2nc3cc(F)ccc3o2)o1 [Example 688, (R)-(4-(difluoromethyl)-2-(1-methyl-1H-imidazol-5-yl)oxazol-5-yl)(4-(5-fluorobenzo[d]oxazol-2-yl)-6,7-dihydro-1H-imidazo[4,5-c]pyridin-5(4H)-yl)methanone] | 1 to 5 |
| Cc1nc(C(C)(C)O)oc1C(=O)N1CCc2[nH]cnc2[C@@H]1c1nc2cccc(F)c2o1 [Example 267, (R)-(4-(7-fluorobenzo[d]oxazol-2-yl)-6,7-dihydro-1H-imidazo[4,5-c]pyridin-5(4H)-yl)(2-(2-hydroxypropan-2-yl)-4-methyloxazol-5-yl)methanone] | 1 to 5 |
| COc1cccc2oc([C@H]3c4nc[nH]c4CCN3C(=O)c3nc(C(F)F)nn3C)nc12 [Example 602, (R)-(3-(difluoromethyl)-1-methyl-1H-1,2,4-triazol-5-yl)(4-(4-methoxybenzo[d]oxazol-2-yl)-6,7-dihydro-1H-imidazo[4,5-c]pyridin-5(4H)-yl)methanone] | 0.5 to 1 |
| Cn1cc(-c2nnc(C(=O)N3CCc4[nH]cnc4[C@H]3c3nc4cc(F)cc(F)c4o3)o2)cn1 [Example 665, (S)-(4-(5,7-difluorobenzo[d]oxazol-2-yl)-6,7-dihydro-1H-imidazo[4,5-c]pyridin-5(4H)-yl)(5-(1-methyl-1H-pyrazol-4-yl)-1,3,4-oxadiazol-2-yl)methanone] | ≤ 0.5 |

Same assay, conditions: A375 cells expressing R408W PAH; 24 hrs with compound, then 20 μM sepiapterin and 800 μM 13C9,15N-Phenylalanine for 4 hours; 13C-Tyrosine by LC-MS; average where tested multiple times

| Compound | AC50 [µM] |
| --- | --- |
| COCc1nnc(C(=O)N2CCc3[nH]cnc3C2c2nc3cc(F)ccc3o2)o1 (centres unmarked) | ≥ 5 |
| Fc1ccc2oc(C3c4nc[nH]c4CCN3Cc3ocnc3C(F)F)nc2c1 (centres unmarked) | ≥ 5 |
| O=C(c1cnco1)N1CCc2[nH]cnc2C1c1nc2c(F)cc(F)cc2o1 (centres unmarked) | ≥ 5 |
| Nc1ccc2c(C(=O)N3CCc4[nH]cnc4C3c3nc4cc(F)ccc4o3)cnn2c1 (centres unmarked) | ≥ 5 |
| O=C(c1cnn2cc(CN3CC(F)C3)ccc12)N1CCc2[nH]cnc2[C@@H]1c1nc2cc(F)ccc2o1 (single isomer, unassigned) | ≥ 5 |
| O=C(CCc1cncs1)N1CCc2[nH]cnc2[C@H]1c1nc2c(F)cccc2o1 (single isomer, unassigned) | 1 to 5 |
| O=C(c1ccnn1C(F)F)N1CCc2[nH]cnc2C1c1nc2c(F)c(F)ccc2o1 (centres unmarked) | 1 to 5 |
| CNc1ccc2c(C(=O)N3CCc4[nH]cnc4C3c3nc4cc(F)ccc4o3)cnn2c1 (centres unmarked) | 1 to 5 |
| CC(C)(O)c1nnc(C(=O)N2CCc3[nH]cnc3C2c2nc3cc(F)ccc3o2)o1 (centres unmarked) | ≥ 5 |
| O=C(c1cnco1)N1CCc2[nH]cnc2C1c1nc2c(F)cccc2o1 (centres unmarked) | 1 to 5 |
